{"source": "paper PMC11891579", "about": "“Fluorescent PyrAte-(S)-citalopram conjugates enable imaging of the serotonin transporter in living tissue” (Chemical Science, 2025)", "biological_target": "T1, SERT (Homo sapiens, UniProt P31645)", "T1 construct": "expressed in transfected cells", "T1 sequence (P31645 whole entry)": "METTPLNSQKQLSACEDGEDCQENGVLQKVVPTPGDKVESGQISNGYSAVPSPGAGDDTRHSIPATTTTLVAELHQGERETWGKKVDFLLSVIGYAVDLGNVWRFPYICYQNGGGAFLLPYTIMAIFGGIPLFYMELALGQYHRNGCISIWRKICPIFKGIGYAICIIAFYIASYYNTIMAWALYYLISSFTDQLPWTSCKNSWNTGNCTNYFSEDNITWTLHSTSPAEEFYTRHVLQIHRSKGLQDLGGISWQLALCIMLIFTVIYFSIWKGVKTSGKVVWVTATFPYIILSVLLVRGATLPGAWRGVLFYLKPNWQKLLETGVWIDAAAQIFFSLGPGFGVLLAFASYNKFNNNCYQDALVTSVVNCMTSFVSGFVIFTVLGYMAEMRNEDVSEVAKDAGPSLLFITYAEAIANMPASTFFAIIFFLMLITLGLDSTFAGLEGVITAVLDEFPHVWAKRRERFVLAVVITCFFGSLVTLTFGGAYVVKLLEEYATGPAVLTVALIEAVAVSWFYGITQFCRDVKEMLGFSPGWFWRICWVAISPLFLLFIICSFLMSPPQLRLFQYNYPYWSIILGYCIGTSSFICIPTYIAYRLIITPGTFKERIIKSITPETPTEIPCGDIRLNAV", "assay": "whole-cell patch clamp of 5-HT-mediated currents in SERT-expressing HEK293 cells", "type": "cell-based", "experimental": "ten minutes (for [3H]MPP+), by exchange of the substrate-containing buffer with 0.2 mL ice-cold KHB.\nThe KHB was aspirated immediately. Cells were lysed and prepared for [3H] content analysis by adding 0.2 mL Ultima Gold™ XR liquid scintillation cocktail. Measurements were performed in a 1450 MicroBeta microplate liquid scintillation counter. Non-specific uptake was determined in the presence of 30 µM paroxetine (for YhSERT), 50 µM GBR12909 (for YhDAT and hNET), or 100 µM decynium-22 (for YhOCT3).\nFor radioligand binding assays, membranes were first prepared from HEK293 cells stably expressing YhSERT. Cells were harvested from dishes using a plastic scraper and ice-cold PBS. Cells were recovered as a pellet after centrifugation (400× g) for 10 min at 4°C, and then re-suspended in HME buffer. […] Protein concentration was determined using Coomassie Brilliant Blue kit (BioRad Laboratories, California, USA). […] The amount of radioactivity in the filters was measured using a Tri-Carb 2800TR liquid scintillation analyzer (PerkinElmer). The Ki was calculated from the measured IC50 using the Cheng-Prusoff equation.\nPrior to imaging, cell culture medium was replaced with pre-warmed KHB. […] PyrAtes were excited using a 405 nm laser, and its fluorescent signals collected using 525/50 nm emission filters; mCherry was excited using a 561 nm laser, and fluorescence was collected using 595/50 nm emission filters. […]"}
{"compound": "CCN(CC)c1ccc(-c2cc[n+]3c(-c4ccccc4)c(N4CCCC4)n(CCCCCCC(=O)NCc4ccc5c(c4)CO[C@@]5(CCCN(C)C)c4ccc(F)cc4)c3c2)cc1", "note": "[PYR-C6-CIT, PyrAte-C6-(S)-citalopram]", "values": [{"measurement": "ratio of 5-HT-mediated currents before and after application (current reduced to)", "setting": "1 μM compound, 10 µM 5HT, N = 6", "result": 47, "unit": "%"}, {"measurement": "inhibition at 1 µM", "setting": "HEK293, read-out: inhibition of 5-HT-mediated currents, 1 μM concentration", "result": "~50", "unit": "%"}]}
